The nature of data set [1]: Terminal half life in Sprague-Dawley rat at 5 mg/kg, po and 1 mg/kg, iv. It is filed as ADME, organism-based. To be noted: in vivo, read-out: beta t1/2 (converted).
Data set [2] is described as follows: Oral bioavailability in Sprague-Dawley rat at 5 mg/kg. The format is ADME, organism-based. To be noted: in vivo.
Data set [3] is described as follows: Drug absorption in Sprague-Dawley rat portal vein at 5 mg/kg, po. The format is ADME, organism-based. Also noted: dose 5 mg/kg, route oral. To be noted: read-out: Drug absorption.
The nature of data set [4]: AUC (0 to infinity) in Sprague-Dawley rat at 5 mg/kg, po. Also noted: time infinity, dose 5 mg/kg, route oral. It is filed as ADME, organism-based. To be noted: plasma.
The nature of data set [5]: AUC in Sprague-Dawley rat at 1 mg/kg, iv. Set-up: dose 1 mg/kg, route intravenous. To be noted: plasma. The format is ADME, organism-based.
Data set [6] can be described thus: Clearance in Sprague-Dawley rat at 1 mg/kg, iv. The format is ADME, organism-based. To be noted: in vivo. Set-up: dose 1 mg/kg, route intravenous.
Data set [7] concerns Hepatitis C virus. Kind of data set: Antiviral activity against HCV subtype 1b expressing NS3/4A R115K mutant protease infected in ET cells after 72 hrs. It is filed as functional, organism-based, Hepacivirus hominis. To be noted: genotype 1b.
Data set [8] has as its system Hepatitis C virus. The data set is described as follows: Antiviral activity against HCV subtype 1b expressing NS3/4A D168V mutant protease infected in ET cells after 72 hrs. It is filed as functional, organism-based, Hepacivirus hominis. To be noted: genotype 1b.
Data set [9] deals with Hepatitis C virus. The data set is described as follows: Antiviral activity against HCV subtype 1b expressing NS3/4A D168A mutant protease infected in ET cells after 72 hrs. The format is functional, organism-based, Hepacivirus hominis. To be noted: genotype 1b.
The test system of data set [10] is Hepatitis C virus. Kind of data set: Antiviral activity against HCV subtype 1b expressing NS3/4A A156V mutant protease infected in ET cells after 72 hrs. The format is functional, organism-based, Hepacivirus hominis. To be noted: genotype 1b.
The test system of data set [11] is Hepatitis C virus. The data set is described as follows: Antiviral activity against HCV subtype 1b expressing NS3/4A A156T mutant protease infected in ET cells after 72 hrs. To be noted: genotype 1b. The format is functional, organism-based, Hepacivirus hominis.
The test system of data set [12] is Hepatitis C virus. The data set is described as follows: Antiviral activity against HCV subtype 1b expressing NS3/4A A156S mutant protease infected in ET cells after 72 hrs. To be noted: genotype 1b. The format is functional, organism-based, Hepacivirus hominis.
The test system of data set [13] is Hepatitis C virus. Kind of data set: Antiviral activity against HCV subtype 1b expressing wild type NS3/4A protease infected in ET cells after 72 hrs. The format is functional, organism-based, Hepacivirus hominis. To be noted: genotype 1b.
Data set [14] deals with Hepatitis C virus. Kind of data set: Antiviral activity against HCV subtype 1b infected in human hepatoma cells. To be noted: genotype 1b. It is filed as functional, organism-based, Hepacivirus hominis.
In data set [15] the test system is Hepatitis C virus. Kind of data set: Antiviral activity against HCV subtype 1a infected in human hepatoma cells. The format is functional, organism-based, Hepacivirus hominis.
A short description of data set [16]: Inhibition of HCV subtype 1a NS3/4A protease (Ac-DE-Dap(QXL520)-EE-Abu-psi-[COO]-ASC(5-FAMsp)-NH2 as substrate by FRET analysis. Set-up: species or system Hepatitis C virus subtype 1a.
Data set [17] in a line: Terminal half life in Sprague-Dawley rat at 6.15 mg/kg, po and 1.23 mg/kg, iv. The format is ADME, organism-based. To be noted: in vivo, read-out: beta t1/2 (converted).
Data set [18] is described as follows: Oral bioavailability in Sprague-Dawley rat at 6.15 mg/kg. The format is ADME, organism-based. To be noted: in vivo.
Data set [19] is described as follows: Drug absorption in Sprague-Dawley rat portal vein at 6.15 mg/kg, po. It is filed as ADME, organism-based. Set-up: dose 6.15 mg/kg, route oral. To be noted: read-out: Drug absorption.
Data set [20] is described as follows: AUC (0 to infinity) in Sprague-Dawley rat at 6.15 mg/kg, po. It is filed as ADME, organism-based. Set-up: time infinity, dose 6.15 mg/kg, route oral. To be noted: plasma.
The nature of data set [21]: AUC in Sprague-Dawley rat at 1.23 mg/kg, iv. It is filed as ADME, organism-based. Also noted: dose 1.23 mg/kg, route intravenous. To be noted: plasma.
Data set [22] can be described thus: Clearance in Sprague-Dawley rat at 1.23 mg/kg, iv. It is filed as ADME, organism-based. Also noted: dose 1.23 mg/kg, route intravenous. To be noted: in vivo.

pEC50, pIC50: −log10 of the molar value.

A word on the bioavailability: it is dose-corrected exposure relative to a reference, in per cent. In general, AUC(0-inf) refers to total exposure, with the tail of the curve extrapolated. A lower AUC(0-inf) goes with less exposure. In general, AUC refers to concentration integrated over time. Lower therefore signals less exposure. As usually defined, the clearance is the volume of plasma or blood freed of the substance per unit of time. A high value points to a high capacity for elimination. The term pEC50 denotes −log10 of the EC50, conventionally taken in molar units. One may read the pIC50 as the IC50 on a negative log10 scale, so that one unit is a factor of ten. Low readings indicate a large IC50, high ones a small IC50. Turning to `CCN(CC)C(=O)N[C@H]1CCCCC/C=C\[C@@H]2C[C@@]2(C(=O)NS(=O)(=O)C2CC2)NC(=O)[C@@H]2C[C@@H](Oc3cc(-c4nc(C5CC5)cs4)nc4c(C)c(OC)ccc34)CN2C1=O`, in data set [1], the half-life is 1.4 h. In data set [2], this compound showed a bioavailability of 7.4%. The Fa in [3] amounted to 19%. Moreover, the AUC(0-inf) in [4] turned out to be 48.7 ng·h/mL. In data set [5], this compound had an AUC of 127 ng·h/mL. This compound had a clearance in data set [6] of 152 mL/min/kg. Besides, the pEC50 in data set [7] is 8.40; in data set [8], 7.29; in [9], 7.72; in data set [10] it was 8.26; in [11], 9.00; in data set [12] it was 10.00. Besides, the pEC50 was 10.52 in [13], 9.70 in data set [14] and 9.52 in data set [15]. This compound had a pIC50 in [16] of 9.22.
For `COc1ccc2c(O[C@@H]3C[C@H]4C(=O)N[C@]5(C(=O)NS(=O)(=O)C6CC6)C[C@H]5/C=C\CCCCC[C@H](NC(=O)OC(C)(C)C)C(=O)N4C3)cc(-c3nc(C4CC4)cs3)nc2c1C`, the half-life in data set [17] is 1.63 h. In addition, the bioavailability in data set [18] was found to be 10%. Moreover, in data set [19], the Fa came out at 14.5%. In data set [20], this compound returned an AUC(0-inf) of 201 ng·h/mL. In data set [21], the AUC came to 381 ng·h/mL. In data set [22], the clearance was 45.6 mL/min/kg. Besides, the pEC50 in [7] was 8.22; in data set [10], 8.82; in data set [11] it was 8.72; in [12], 10.10; in data set [13], 10.70; in data set [14], 9.40. The compound further gave a pEC50 in data set [15] of 9.40. This compound also had a pIC50 in [16] of 8.20.

For the origin of these results see ChEMBL document CHEMBL2202978, “Synthesis and antiviral activity of novel HCV NS3 protease inhibitors with P4 capping groups” (Bioorg Med Chem Lett, 2012).
